Data set [1] deals with BBB. Put plainly: Length of time of BBB opening following administration of peptide. In kind it is in vivo, mice. On the procedure: A series of mice were administered 300 μg of K16ApoE followed by administration of ˜40 μL 2% EB at various time points. As a control, only EB was injected, cardiac perfusion was done 6 hours after EB injection, followed by collection of brain. For the other images, 300 μg of K16ApoE was first injected, then EB was injected after 5 min, 10 min, 30 min, 1 h, 2 h and 4 h, respectively. Then, perfusion and collection of brain was done after 5 h 55 min, 5 h 50 min, 5 h 30 min, 5 h, 4 h and 2 h, respectively).

The subject of a further data set is brain. Put plainly: Residence time of EB dye in brain following transportation by the peptide. In kind it is in vivo, mice. As for the experimental part:
A series of mice were administered 300 μg of K16ApoE followed by administration of ˜40 μL 2% EB 10 min after administration of the peptide. As a control, only EB was injected, cardiac perfusion was done 6 hours after EB injection, followed by collection of brain. For all other mice, perfusion and collection of brains was performed 15 min, 30 min, 1 h, 2 h, 4 h, 6 h, 12, h, and 24 h following administration of EB.

Data set [2] deals with brains, lungs, heart, liver, spleen and kidney. Put plainly: Tissue distribution of Evans Blue (EB) after delivery via K16ApoE. In kind it is in vivo, mice. On the procedure: Mice were injected with various amounts of K16ApoE peptide (0 μg, 150 μg, 100 μg, 75 μg, 50 μg, 25 and μg) first. EB (40 μL of a 2% solution was injected 10 min after injection of the peptide. Tissues (brains, lungs, heart, liver, spleen and kidney) were collected 1 h after EB delivery. All injections were through the femoral vein.

Data set [3] deals with BBB. Put plainly: Comparison of delivery of EB to the brain by K16ApoE and K26ApoE. In kind it is in vivo. Particulars: for EB dye in brain: EB 10 min later, brain collected 1 h after EB. As for the experimental part:
This experiment was carried out to evaluate if lengthening the lysine-chain will have any effect on the delivery of small molecules to the brain. ˜40 μL of 2% EB was injected 10 min after injection of various amounts of K16ApoE (75 μg, 100 μg, 150 μg, 250 μg, and 300 μg) or K26ApoE (25 μg, 50 μg, 75 μg, 100 μg, 125 μg, and 150 μg). K26ApoE (SEQ ID NO: 139) having the sequence: Brain tissue as was collected 1 h following EB injection. All injections were at the femoral vein.

Data set [4] has as its system BBB. Description: Transportation of Evan's Blue (EB) dye across the BBB after iv injection of peptide. Particulars: 67.5 nanomoles K16ApoE iv injected first, then ~40 μL 2% EB; brain evaluated ~2 hours after dye. In kind it is in vivo, mouse. As for the experimental part:
(§1) To explore whether K16ApoE (SEQ. ID. NO: 42) compromises integrity of the BBB, the peptide was first injected by iv followed by injection of Evan's Blue (EB; a routinely used small molecule blue dye with a molecular weight of 960.81) by iv into the femoral vein of a mouse. Cardiac perfusion was performed and the brains of the mice were removed and evaluated approximately 2 hours following injection of the dye. As controls, a peptide consisting of 16 lysine residues (K16) and a 20-amino acid peptide comprising the LDLR-binding domain of ApoE (ApoE-FITC; (SEQ ID NO:13)), were used. The particulars of each administration are as follows: • 1) 67.5 nanomoles of K16 injected first, then ˜40 μL 2% EB was injected. • 2) Same as 1 but K16 and EB mixed prior to injection. • 3) 67.5 nanomoles of ApoE-FITC injected first, then ˜40 μL 2% EB was injected. • 4) Same as 3 but ApoE-FITC peptide and EB was mixed prior to injection. • 5) 67.5 nanomoles of K16ApoE injected first, then ˜40 μL 2% EB was injected. • 6) Same as 5 but K16ApoE peptide and EB was mixed first before injection.

Data set [5] relates to BBB. Description: EB transportation across the BBB as a function of the amount of K16ApoE administered. In kind it is in vivo, mouse. As for the experimental part:
as §1
Using the method described in Example 1, various amounts of K16ApoE (SEQ. ID. NO: 42) was injected followed by administration of ˜40 μL 2% EB. […]

Data set [6] concerns BBB. Put plainly: Transportation of dyes of various molecular weights across the BBB (K16ApoE or K16ApoE+IgG). In kind it is in vivo, mouse. On the procedure: as §1
To evaluate delivery of molecules of various molecular weights across the blood brain barrier, the method of Example 1 was used with Evan's Blue (EB), MW 960.81 gmol; Crocein Scarlet, MW 584.54 g/mol; and Light green SF, MW 792.86 g/mol. […]

[7] abbreviates: control: only EB injected, perfusion 6 hours after EB.

The results in this text go back to patent publication US20140314663A1, “PEPTIDE-MEDIATED DELIVERY OF ACTIVE AGENTS ACROSS THE BLOOD-BRAIN BARRIER” (MAYO FOUNDATION FOR MEDICAL EDUCATION AND RESEARCH, priority 2011, published 2014).

Consider `Cc1cc(-c2ccc(/N=N/c3ccc4c(S(=O)(=O)O)cc(S(=O)(=O)O)c(N)c4c3O)c(C)c2)ccc1/N=N/c1ccc2c(S(=O)(=O)O)cc(S(=O)(=O)O)c(N)c2c1O` [EB, Evan's Blue], for which the entries for the “EB dye in brain” value in the data set with BBB [1] (setting [7]) and in the data set on brain (setting [7]) were “no dye was observed” and “no dye is observed”, respectively. Moreover, the “time after administration up to which dye remains intense (retained well) in brain” value in the data set with brain (EB 10 min after 300 μg K16ApoE) was “up to 4 h”. The “time post EB administration at which dye is first observed in brain” value with brain (EB 10 min after 300 μg K16ApoE) came out at 15 min. Also, the “time after administration up to which dye is still observed, less intensely, in brain” value in the data set on brain (EB 10 min after 300 μg K16ApoE, longest time point tested) was “up to 24 hours”. The EB in brain result in data set [2] (EB 10 min after 0-150 μg K16ApoE, tissues collected 1 h after EB) is listed as “goes into brain only after injection of the peptide”. The “EB stain of tissues” value in data set [2] (EB injected after K16ApoE injection) is “Kidney, spleen and liver are stained with EB”; in data set [2] (EB injected without K16ApoE), “Kidney, spleen, liver and heart show some EB-stain”.

In the case of “KKKKKKKKKKKKKKKKKKKKKKKKKKLRVRLASHLRKLRKRLLRDA (KKKKKKKKKKKKKKKKKKKKKKKKKKLRVRLASHLRKLRKRLLRDA) [K26ApoE]”, the entries for the “EB dye in brain” value in the data set on BBB [3] (25 μg of peptide), in the data set on BBB [3] (50 μg of peptide) and in the data set on BBB [3] (75 μg of peptide) were “no dye was observed”, “only a small amount of dye present” and “Increasing EB is observed”, respectively. Also, in the data set with BBB [3] (K26ApoE vs K16ApoE), the “effectiveness in delivering EB to the brain relative to K16ApoE” value is reported as “approximately two-fold”.

Take “KKKKKKKKKKKKKKKKLRVRLASHLRKLRKRLLRDA (KKKKKKKKKKKKKKKKLRVRLASHLRKLRKRLLRDA) [K16ApoE]”: the “EB dye transported to the brain (blue coloring of brain)” value in the data set with BBB [4] was “crosses the BBB and is transported to the brain”. Moreover, the “EB dye observed in the brain” value was “increasing amount of EB dye present in the brain” with BBB [5] (increasing amounts of K16ApoE (100, 200, 300 μg) injected before ~40 μL 2% EB) and “no dye is observed” with BBB [5] (less than 100 μg K16ApoE injected before ~40 μL 2% EB). Also, the “transport of dye to the brain” value with BBB [6] (300 μg K16ApoE (alone or + 300 μg IgG) injected first, then dye (EB, Crocein Scarlet, Light green SF; ~40 μL 2%)) is listed as “allowed transport of molecules of various sizes to the brain”; with BBB [6] (300 μg K16ApoE mixed with dye (~40 μL 2%) prior to injection) it was “does not appear to cross the BBB”. In addition, the “EB dye in brain” value in the data set with BBB [1] (EB injected 5 min, 10 min, 30 min after 300 μg K16ApoE) is on record as “observed”; with BBB [1] (EB injected 1 h and 2 h after 300 μg K16ApoE), “decreased intensity of dye observed”; with BBB [1] (EB injected 4 h after 300 μg K16ApoE) it was “little to no EB dye remaining”; in the data set on BBB [3] (75 μg of peptide) it was “no dye was observed”; with BBB [3] (100 μg of peptide), “only a small amount of dye present”; in the data set with BBB [3] (150 μg of peptide and above), “Increasing EB is observed”. Besides, the “amount of K16ApoE giving best EB entry into brain” value in data set [2] (EB 10 min after peptide, tissues collected 1 h after EB) was found to be 150 µg.
